Target: T1, human TPO receptor (hTPOR) (Homo sapiens, UniProt P40238)
T1 construct: expressed in transfected cells; host or cells: BaF-B03 (murine IL-3 dependent cell line)
T1 sequence (P40238 26-635): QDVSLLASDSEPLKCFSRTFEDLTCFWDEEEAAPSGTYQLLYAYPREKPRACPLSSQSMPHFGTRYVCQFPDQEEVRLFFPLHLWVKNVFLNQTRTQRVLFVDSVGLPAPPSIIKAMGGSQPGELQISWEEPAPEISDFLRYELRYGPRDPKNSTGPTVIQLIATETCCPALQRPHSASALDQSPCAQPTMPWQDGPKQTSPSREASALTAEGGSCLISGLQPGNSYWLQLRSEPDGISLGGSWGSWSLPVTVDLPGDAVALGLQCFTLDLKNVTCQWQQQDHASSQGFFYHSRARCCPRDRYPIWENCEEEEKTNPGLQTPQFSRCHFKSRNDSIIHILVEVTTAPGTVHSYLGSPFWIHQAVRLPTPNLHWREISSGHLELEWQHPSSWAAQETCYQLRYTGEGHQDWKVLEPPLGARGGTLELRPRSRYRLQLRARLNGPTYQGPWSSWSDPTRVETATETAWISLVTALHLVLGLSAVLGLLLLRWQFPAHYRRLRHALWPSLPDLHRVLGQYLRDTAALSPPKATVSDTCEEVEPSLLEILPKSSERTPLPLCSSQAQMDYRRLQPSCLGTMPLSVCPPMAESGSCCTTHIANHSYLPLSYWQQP
Assay: Thrombopoietic activity: proliferation of TPO dependent BaF/hTPOR cells (WST-1, absorbance at 450 nm)
Format: cell-based
Details: 20 h + 4 h WST-1, ED50 = half concentration of the concentration showing the maximum thrombopoietic activity
Method in brief: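 Proliferation read-out: WST-1 absorbance at 450 nm after 20 h compound exposure plus 4 h reagent, using IL-3-deprived BaF/hTPOR cells (5×10^4 per well) dependent on human TPO receptor signalling. ED50 defined as half the concentration producing maximal activity.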

| Compound | EC50 (Table 1) [nM] | EC50 (Table 2) [nM] |
| --- | --- | --- |
| CC(=Cc1c(Cl)cc(C(=O)Nc2nc(-c3cccc(CCCOCC(C)(C)C)c3F)cs2)cc1Cl)C(=O)O [Compound B66, 3-[2,6-dichloro-4-(4-{3-[3-(2,2-dimethylpropyloxy)propyl]-2-fluorophenyl]thiazol-2-ylcarbamoyl}phenyl)-2-methylacrylic acid] | 0.91 |  |
| CCCCCCCCOc1cccc(-c2csc(NC(=O)c3cc(F)c(/C=C(\C)C(=O)O)c(F)c3)n2)c1OC [Compound B2004, (E)-3-{2,6-difluoro-4-[4-(2-methyloxy-3-octyloxyphenyl)thiazol-2-ylcarbamoyl]phenyl}-2-methylacrylic acid] | 13.9 |  |
| CCCc1cccc2c1OCc1sc(NC(=O)c3cc(F)c(/C=C(\C)C(=O)O)c(F)c3)nc1-2 [Compound A1308, (E)-3-[2,6-difluoro-4-(6-propyl-4H-chromeno[4,3-d]thiazol-2-ylcabamoyl)phenyl]-2-methylacrylic acid] | 12.9 |  |
| CCCCOC(CCCC)c1cccc(-c2csc(NC(=O)c3cc(Cl)c(C=C(C)C(=O)O)c(Cl)c3)n2)c1F (stereo not shown) [Compound B87, 3-(4-{4-[3-(1-n-butyloxypentyl)-2-fluorophenyl]thiazol-2-ylcarbamoyl}-2,6-dichlorophenyl)-2-methylacrylic acid] | 0.62 |  |
| CCCc1cccc2c1OCc1sc(NC(=O)c3cc(Cl)c(/C=C(\C)C(=O)O)c(Cl)c3)nc1-2 [Compound A1311, (E)-3-[2,6-dichloro-4-(6-propyl-4H-chromeno[4,3-d]thiazol-2-ylcabamoyl)phenyl]-2-methylacrylic acid] | 8.86 |  |
| CCC(CC)COCCCc1cccc(-c2csc(NC(=O)c3cc(Cl)c(/C=C(\C)C(=O)O)c(Cl)c3)n2)c1OC [Compound B1849, (E)-3-[2,6-dicholoro-4-(4-{3-[3-(2-ethylbutyloxy)propyl]-2-methyloxyphenyl}thiazol-2-ylcarbamoyl)phenyl]-2-methylacrylic acid] |  | 22.5 |
| CCCCCCCCCC(OC)c1cccc(-c2csc(NC(=O)c3cc(F)c(/C=C(\C)C(=O)O)c(F)c3)n2)c1OC (stereo not shown) [Compound B354, (E)-3-(2,6-difluoro-4-{4-[2-methyloxy-3-(1-methyloxydecyl)phenyl]thiazol-2-ylcarbamoyl}phenyl)-2-methylacrylic acid] | 3.2 |  |
| CCCOC(CCC)c1cccc(-c2csc(NC(=O)c3cc(F)c(C=C(C)C(=O)O)c(F)c3)n2)c1F (stereo not shown) [Compound B34, 3-(2,6-difluoro-4-{4-[2-fluoro-3-(1-n-propyloxybutyl)phenyl]thiazol-2-ylcarbamoyl}phenyl)-2-methylacrylic acid] | 0.99 |  |
| CCCCCCCOCc1cccc(-c2csc(NC(=O)c3cc(F)c(/C=C(\C)C(=O)O)c(F)c3)n2)c1OC [Compound B1990, (E)-3-{2,6-difluoro-4-[4-(3-heptyloxymethyl-2-methyloxyphenyl)thiazol-2-ylcarbamoyl]phenyl}-2-methylacrylic acid] | 12.1 |  |
| CCCCCCOCc1cccc(-c2csc(NC(=O)c3cc(F)c(/C=C(\C)C(=O)O)c(F)c3)n2)c1OC [Compound B1992, (E)-3-{2,6-difluoro-4-[4-(3-hexyloxymethyl-2-methyloxyphenyl)thiazol-2-ylcarbamoyl]phenyl}-2-methylacrylic acid] | 13.1 |  |
| COc1c(CCOCCC(C)C)cccc1-c1csc(NC(=O)c2cc(Cl)c(/C=C(\C)C(=O)O)c(Cl)c2)n1 [Compound B1955] | 11.7 |  |
| CCCCCCCCCCC(OC)c1cccc(-c2csc(NC(=O)c3cc(Cl)c(/C=C(\OC)C(=O)O)c(Cl)c3)n2)c1OC (stereo not shown) [Compound B1438, (Z)-3-(2,6-dichloro-4-{4-[2-methyloxy-3-(1-methyloxyundecyl)phenyl]thiazol-2-ylcarbamoyl}phenyl)-2-methyloxyacrylic acid] | 6.3 |  |
| COc1c(COCCC(C)(C)C)cccc1-c1csc(NC(=O)c2cc(F)c(/C=C(\C)C(=O)O)c(F)c2)n1 [Compound B1934, (E)-3-(4-{4-[3-(3,3-dimethylbutyloxymethyl)-2-methyloxyphenyl]thiazol-2-ylcarbamoyl}-2,6-difluorophenyl)-2-methylacrylic acid] | 13 |  |
| CCCCOCCCC(OCCCC)c1cccc(-c2csc(NC(=O)c3cc(Cl)c(C=C(C)C(=O)O)c(Cl)c3)n2)c1F (stereo not shown) [Compound B100, 3-(4-{4-[3-(1,4-dibutyloxybutyl)-2-fluorophenyl]thiazol-2-ylcarbamoyl)-2,6-dichlorophenyl]-2-methylacrylic acid] | 0.68 |  |
| CCCCCC(OC)c1cccc(-c2nc(NC(=O)c3cc(Cl)c(/C=C(\OC)C(=O)O)c(Cl)c3)sc2OC)c1F (stereo not shown) [Compound B1861, (Z)-3-(2,6-dichloro-4-{4-[2-fluoro-3-(1-methyloxyhexyl)phenyl]-5-methyoxythiazol-2-ylcarbamoyl}phenyl)-2-methyloxyacrylic acid] |  | 22.8 |
| CCCCCCCCCCC(OC)c1cccc(-c2csc(NC(=O)c3cc(Cl)c(/C=C(\C)C(=O)O)c(Cl)c3)n2)c1OC (stereo not shown) [Compound B1060, (E)-3-(2,6-dichloro-4-{4-[2-methyloxy-3-(1-methyloxy-undecyl)phenyl]thiazol-2-ylcarbamoyl}phenyl)-2-methylacrylic acid] | 3.9 |  |
| COc1c(CCCOCCC(C)C)cccc1-c1csc(NC(=O)c2cc(Cl)c(/C=C(\C)C(=O)O)c(Cl)c2)n1 [Compound B1852, (E)-3-[2,6-dichloro-4-(4-{2-methyloxy-3-[3-(3-methylbutyloxy)propyl]phenyl}thiazol-2-ylcarbamoyl)phenyl]-2-methylacrylic acid] | 16.5 |  |
| COc1c(COCCC(C)C)cccc1-c1csc(NC(=O)c2cc(F)c(/C=C(\C)C(=O)O)c(F)c2)n1 [Compound B2027, (E)-3-(2,6-difluoro-4-{4-[2-methyloxy-3-(3-methylbutyloxymethyl)phenyl]thiazol-2-ylcarbamoyl}phenyl)-2-methylacrylic acid] | 12.6 |  |
| COc1c(CCCOCC2CC2)cccc1-c1csc(NC(=O)c2cc(Cl)c(/C=C(\C)C(=O)O)c(Cl)c2)n1 [Compound B1945, (E)-3-(2,6-dichloro-4-{4-[3-(3-cyclopropylmethyloxypropyl)-2-methyloxyphenyl]thiazol-2-ylcarbamoyl}phenyl)-2-methylacrylic acid] | 19.3 |  |
| CO/C(=C\c1c(F)cc(C(=O)Nc2nc(-c3cccc(COCCC(C)(C)C)c3OC)cs2)cc1F)C(=O)O [Compound B1935, (Z)-3-(4-{4-[3-(3,3-dimethylbutyloxymethyl)-2-methyloxyphenyl]thiazol-2-ylcarbamoyl}-2,6-difluorophenyl)-2-methyloxyacrylic acid] |  | 25.4 |
| C/C(=C\c1c(F)cc(C(=O)Nc2nc3c(s2)COc2c-3cccc2C(C)C)cc1F)C(=O)O [Compound A1309, (E)-3-[2,6-difluoro-4-(6-isopropyl-4H-chromeno[4,3-d]thiazol-2-ylcarbamoyl)phenyl]-2-methylacrylic acid] | 12.8 |  |
| CO/C(=C\c1c(Cl)cc(C(=O)Nc2nc(-c3cccc(CCCOCC4CCCC4)c3OC)cs2)cc1Cl)C(=O)O [Compound B1951, (Z)-3-(2,6-dichloro-4-{4-[3-(3-cyclopentylmethyloxypropyl)-2-methyloxyphenyl]thiazol-2-ylcarbamoyl}phenyl)-2-methyloxyacrylic acid] |  | 22.3 |
| CCCCCOCc1cccc(-c2csc(NC(=O)c3cc(Cl)c(/C=C(\C)C(=O)O)c(Cl)c3)n2)c1OC [Compound B1886] |  | 22.1 |
| CCCCCCCCCCCC(OC)c1cccc(-c2csc(NC(=O)c3cc(F)c(C=C(C)C(=O)O)c(F)c3)n2)c1F (stereo not shown) [Compound B48, 3-(2,6-difluoro-4-{4-[2-fluoro-3-(1-methyloxydodecyl)phenyl]thiazol-2-ylcarbamoyl}phenyl)-2-methylacrylic acid] | 2.23 |  |
| CCC(CC)OCc1cccc(-c2csc(NC(=O)c3cc(Cl)c(/C=C(\C)C(=O)O)c(Cl)c3)n2)c1OC [Compound B1892, (E)-3-(2,6-dichloro-4-{4-[3-(1-ethylpropyloxymethyl)-2-methyloxyphenyl]thiazol-2-ylcarbamoyl}phenyl)-2-methylacrylic acid] | 11.6 |  |
| CCC(CC)COCCc1cccc(-c2csc(NC(=O)c3cc(F)c(/C=C(\C)C(=O)O)c(F)c3)n2)c1OC [Compound B1959, (E)-3-[4-(4-{3-[2-(2-ethylbutyloxy)ethyl]-2-methyloxyphenyl}thiazol-2-ylcarbamoyl)-2,6-difluorophenyl]-2-methylacrylic acid] | 11.3 |  |
| COc1c(CCOCCCC(C)C)cccc1-c1csc(NC(=O)c2cc(F)c(/C=C(\C)C(=O)O)c(F)c2)n1 [Compound B1920, (E)-3-[2,6-difluoro-4-(4-{2-methyloxy-3-[2-(4-methylpentyloxy)ethyl]phenyl}thiazol-2-ylcarbamoyl)phenyl)-2-methylacrylic acid] | 14.5 |  |
| CCCCOC(CCC)c1cccc(-c2csc(NC(=O)c3cc(Cl)c(C=C(C)C(=O)O)c(Cl)c3)n2)c1F (stereo not shown) [Compound B79, 3-(4-{4-[3-(1-n-butyloxybutyl)-2-fluorophenyl]thiazol-2-ylcarbamoyl}-2,6-dichlorophenyl)-2-methylacrylic acid] | 0.77 |  |

From patent US7601746B2 (Shionogi & Co., Ltd., priority 2003, dated 2009)
